This assay concerns the target T1, FLK-1 receptor (Mus musculus, UniProt P35918).
T1 construct: expressed in transfected cells; host or cells: NIH3T3 C7#3
Briefly: FLK-1 ELISA (kinase activity of the FLK-1 receptor in FLK-1/NIH3T3 cells, VEGF stimulated). It is filed as cell-based. The procedure, abridged:
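FLK-1-expressing NIH3T3 C7#3 cells, starved overnight in 0.1% FBS medium, were treated with compounds at a 1:200 final dilution (0.5% DMSO) for 2 h at 37 °C, with VEGF stimulation. FLK-1 kinase activity was read by ELISA on anti-rabbit IgG plates using affinity-purified anti-FLK-1 antiserum.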
T1 sequence (P35918 20-1345): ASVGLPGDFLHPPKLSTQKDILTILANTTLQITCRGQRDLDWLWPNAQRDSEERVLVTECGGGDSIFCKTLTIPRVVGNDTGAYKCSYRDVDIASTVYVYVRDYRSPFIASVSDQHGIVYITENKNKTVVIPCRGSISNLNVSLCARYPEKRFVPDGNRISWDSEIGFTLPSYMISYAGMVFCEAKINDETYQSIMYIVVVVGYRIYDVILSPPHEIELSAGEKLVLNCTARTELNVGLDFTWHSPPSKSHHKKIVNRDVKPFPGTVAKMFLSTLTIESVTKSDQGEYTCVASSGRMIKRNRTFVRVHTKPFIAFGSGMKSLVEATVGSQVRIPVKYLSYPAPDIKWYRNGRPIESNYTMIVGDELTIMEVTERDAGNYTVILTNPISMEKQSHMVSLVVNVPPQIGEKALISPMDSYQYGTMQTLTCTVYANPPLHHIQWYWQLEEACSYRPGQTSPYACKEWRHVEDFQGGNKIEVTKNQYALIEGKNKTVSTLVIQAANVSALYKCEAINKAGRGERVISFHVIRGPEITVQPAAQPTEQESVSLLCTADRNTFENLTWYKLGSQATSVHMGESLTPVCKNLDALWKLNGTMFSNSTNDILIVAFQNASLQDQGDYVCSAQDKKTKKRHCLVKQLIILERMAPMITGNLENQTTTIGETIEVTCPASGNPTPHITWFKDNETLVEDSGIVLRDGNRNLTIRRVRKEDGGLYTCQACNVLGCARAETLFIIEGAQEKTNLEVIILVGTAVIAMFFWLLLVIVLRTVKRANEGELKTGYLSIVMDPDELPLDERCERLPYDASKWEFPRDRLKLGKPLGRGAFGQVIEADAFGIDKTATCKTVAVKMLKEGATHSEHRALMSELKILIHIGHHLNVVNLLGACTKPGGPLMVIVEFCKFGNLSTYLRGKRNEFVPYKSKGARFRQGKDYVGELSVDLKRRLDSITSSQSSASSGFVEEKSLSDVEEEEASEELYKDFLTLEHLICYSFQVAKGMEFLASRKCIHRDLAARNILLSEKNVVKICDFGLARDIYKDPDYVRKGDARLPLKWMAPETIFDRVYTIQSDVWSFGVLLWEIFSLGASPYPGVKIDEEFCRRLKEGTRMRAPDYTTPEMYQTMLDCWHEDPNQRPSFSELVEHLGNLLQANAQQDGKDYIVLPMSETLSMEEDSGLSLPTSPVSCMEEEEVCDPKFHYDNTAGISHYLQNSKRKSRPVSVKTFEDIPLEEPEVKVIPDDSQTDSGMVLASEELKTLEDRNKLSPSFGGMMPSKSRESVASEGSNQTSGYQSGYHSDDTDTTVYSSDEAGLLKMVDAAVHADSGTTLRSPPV
Regarding `CCOc1ccccc1C=C1C(=O)Nc2c(Br)cc(Br)cc21` [10717/A02], the “Fik Kinase %Inhibition” value is 0.1%. Turning to `Cc1c(Br)ccc2c1C(=Cc1cccn1C)C(=O)N2` [10717/C04], the “Fik Kinase %Inhibition” value is on record as -0.8%.

For the compound `Cc1c(Br)ccc2c1C(=Cc1ccc(F)cc1)C(=O)N2` [10717/C05], the “Fik Kinase %Inhibition” value is -2.3%. The figure for `Cc1c(Br)ccc2c1C(=Cc1c[nH]c3ccccc13)C(=O)N2` [10717/C06] is 7.6%; for `Cc1ccc(C=C2C(=O)Nc3ccc(Br)c(C)c32)s1` [10717/C07] it is 1.6%.

As for `Cc1c(Br)ccc2c1C(=Cc1ccc(Br)cc1)C(=O)N2` [10717/C08], the “Fik Kinase %Inhibition” value was 7.0%. The figure for `Cc1c(Br)ccc2c1C(=Cc1ccc[nH]1)C(=O)N2` [10717/C09] is 77.1%.

Take `COc1cccc(O)c1C=C1C(=O)Nc2ccc(Br)c(C)c21` [10717/C10]: the “Fik Kinase %Inhibition” value is -8.0%.

Take `Cc1[nH]c(C=C2C(=O)Nc3ccc(Br)c(C)c32)c(Br)c1Br` [10717/C11]: the “Fik Kinase %Inhibition” value is on record as 4.6%. The result for `CNS(=O)(=O)c1ccc2c(c1)C(=Cc1ccc(OC)c(OC)c1)C(=O)N2` [10720/D04] reads 15.6%; that for `CNS(=O)(=O)c1ccc2c(c1)C(=Cc1ccccc1O)C(=O)N2` [10720/D05], 4.8%; that for `CNS(=O)(=O)c1ccc2c(c1)C(=Cc1ccccc1)C(=O)N2` [10720/D06], 10.1%.

Take `CNS(=O)(=O)c1ccc2c(c1)C(=Cc1ccc(SC)s1)C(=O)N2` [10720/D07]: the “Fik Kinase %Inhibition” value was found to be 11.8%. The figure for `CNS(=O)(=O)c1ccc2c(c1)C(=Cc1c(C)cc(O)cc1O)C(=O)N2` [10720/D08] is 3.3%.

For `CCOc1cc(C=C2C(=O)Nc3ccc(S(=O)(=O)NC)cc32)ccc1O` [10720/D09], the “Fik Kinase %Inhibition” value amounted to 5.8%. For `CNS(=O)(=O)c1ccc2c(c1)C(=Cc1cc(OC)ccc1O)C(=O)N2` [10720/D10], the “Fik Kinase %Inhibition” value is recorded as -6.6%. The figure for `CNS(=O)(=O)c1ccc2c(c1)C(=Cc1ncc[nH]1)C(=O)N2` [10720/D11] is 9.8%; for `O=C1Nc2ccc(S(=O)(=O)Nc3ccc(C(F)(F)F)cc3)cc2C1=Cc1c(F)cc(F)cc1F` [10720/E02] it is 5.7%; for `COc1cc(O)ccc1C=C1C(=O)Nc2ccc(S(=O)(=O)Nc3ccc(C(F)(F)F)cc3)cc21` [10720/E03] it is 34.3%. The result for `COc1ccc(C=C2C(=O)Nc3ccc(S(=O)(=O)Nc4ccc(C(F)(F)F)cc4)cc32)cc1OC` [10720/E04] reads 18.4%; that for `O=C1Nc2ccc(S(=O)(=O)Nc3ccc(C(F)(F)F)cc3)cc2C1=Cc1ccccc1O` [10720/E05], -13.8%. The figure for `O=C1Nc2ccc(S(=O)(=O)Nc3ccc(C(F)(F)F)cc3)cc2C1=Cc1ccccc1` [10720/E06] is 25.5%. As for `CSc1ccc(C=C2C(=O)Nc3ccc(S(=O)(=O)Nc4ccc(C(F)(F)F)cc4)cc32)s1` [10720/E07], the “Fik Kinase %Inhibition” value is 18.8%.

As to `Cc1cc(O)cc(O)c1C=C1C(=O)Nc2ccc(S(=O)(=O)Nc3ccc(C(F)(F)F)cc3)cc21` [10720/E08], the “Fik Kinase %Inhibition” value stood at 2.5%.

With `CCOc1cc(C=C2C(=O)Nc3ccc(S(=O)(=O)Nc4ccc(C(F)(F)F)cc4)cc32)ccc1O` [10720/E09], the “Fik Kinase %Inhibition” value worked out at 11.5%. The result for `COc1ccc(O)c(C=C2C(=O)Nc3ccc(S(=O)(=O)Nc4ccc(C(F)(F)F)cc4)cc32)c1` [10720/E10] reads -4.1%; that for `O=C1Nc2ccc(S(=O)(=O)Nc3ccc(C(F)(F)F)cc3)cc2C1=Cc1ncc[nH]1` [10720/E11], 9.3%.

With `O=C1Nc2ccc(S(=O)(=O)N3CCOCC3)cc2C1=Cc1c(F)cc(F)cc1F` [10720/F02], the “Fik Kinase %Inhibition” value is on record as 9.1%. With `COc1cc(O)ccc1C=C1C(=O)Nc2ccc(S(=O)(=O)N3CCOCC3)cc21` [10720/F03], the “Fik Kinase %Inhibition” value turned out to be 10.6%.

Turning to `COc1ccc(C=C2C(=O)Nc3ccc(S(=O)(=O)N4CCOCC4)cc32)cc1OC` [10720/F04], the “Fik Kinase %Inhibition” value came to 10.6%.

Regarding `O=C1Nc2ccc(S(=O)(=O)N3CCOCC3)cc2C1=Cc1ccccc1O` [10720/F05], the “Fik Kinase %Inhibition” value is reported as -3.6%. `O=C1Nc2ccc(S(=O)(=O)N3CCOCC3)cc2C1=Cc1ccccc1` [10720/F06]: the “Fik Kinase %Inhibition” value is given as 11.9%. The result for `CSc1ccc(C=C2C(=O)Nc3ccc(S(=O)(=O)N4CCOCC4)cc32)s1` [10720/F07] reads 4.6%; that for `Cc1cc(O)cc(O)c1C=C1C(=O)Nc2ccc(S(=O)(=O)N3CCOCC3)cc21` [10720/F08], -4.1%; that for `CCOc1cc(C=C2C(=O)Nc3ccc(S(=O)(=O)N4CCOCC4)cc32)ccc1O` [10720/F09], 5.9%. The figure for `COc1ccc(O)c(C=C2C(=O)Nc3ccc(S(=O)(=O)N4CCOCC4)cc32)c1` [10720/F10] is -2.6%; for `O=C1Nc2ccc(S(=O)(=O)N3CCOCC3)cc2C1=Cc1ncc[nH]1` [10720/F11] it is 5.0%. The figure for `O=C1Nc2ccc(CCCl)cc2C1=Cc1c(F)cc(F)cc1F` [10720/G02] is 5.0%; for `COc1cc(O)ccc1C=C1C(=O)Nc2ccc(CCCl)cc21` [10720/G03] it is 2.6%; for `COc1ccc(C=C2C(=O)Nc3ccc(CCCl)cc32)cc1OC` [10720/G04] it is 2.4%.

`O=C1Nc2ccc(CCCl)cc2C1=Cc1ccccc1O` [10720/G05]: the “Fik Kinase %Inhibition” value is -2.9%. The figure for `O=C1Nc2ccc(CCCl)cc2C1=Cc1ccccc1` [10720/G06] is -3.4%; for `CSc1ccc(C=C2C(=O)Nc3ccc(CCCl)cc32)s1` [10720/G07] it is 5.1%. In the case of `Cc1cc(O)cc(O)c1C=C1C(=O)Nc2ccc(CCCl)cc21` [10720/G08], the “Fik Kinase %Inhibition” value was -17.9%. Regarding `CCOc1cc(C=C2C(=O)Nc3ccc(CCCl)cc32)ccc1O` [10720/G09], the “Fik Kinase %Inhibition” value stood at 2.1%. The result for `COc1ccc(O)c(C=C2C(=O)Nc3ccc(CCCl)cc32)c1` [10720/G10] reads -36.6%. Take `O=C1Nc2ccc(CCCl)cc2C1=Cc1ncc[nH]1` [10720/G11]: the “Fik Kinase %Inhibition” value is recorded as -18.0%.

In the case of `Cn1c(C=C2C(=O)Nc3c(Br)cc(Br)cc32)nc2ccccc21` [10721/A02], the “Fik Kinase %Inhibition” value is given as 10.6%. The figure for `Cn1cc(Cl)c(C=C2C(=O)Nc3c(Br)cc(Br)cc32)n1` [10721/A03] is 11.4%; for `Cc1cc(C=C2C(=O)Nc3c(Br)cc(Br)cc32)sc1C` [10721/A04] it is 6.5%; for `O=C1Nc2c(Br)cc(Br)cc2C1=Cc1cc2c([nH]1)CCCC2` [10721/A05] it is 12.5%. The result for `O=C1Nc2c(Br)cc(Br)cc2C1=Cc1cc([N+](=O)[O-])cc(CCl)c1O` [10721/A06] reads 6.4%; that for `O=C1Nc2c(Br)cc(Br)cc2C1=Cc1ccc(Cl)s1` [10721/A07], -4.7%. Take `Cc1cc(C)c(C=C2C(=O)Nc3c(Br)cc(Br)cc32)[nH]1` [10721/A08]: the “Fik Kinase %Inhibition” value came to 4.8%. The figure for `CC(C)(C)c1cc(C=C2C(=O)Nc3c(Br)cc(Br)cc32)ccc1O` [10721/A09] is 10.9%; for `CC(C)(C)c1cc(C=C2C(=O)Nc3c(Br)cc(Br)cc32)cc(Br)c1O` [10721/A10] it is 5.2%. The result for `CC(C)(C)c1cc(C=C2C(=O)Nc3c(Br)cc(Br)cc32)cc(C(C)(C)C)c1O` [10721/A11] reads 4.8%; that for `O=C1Nc2ccc(I)cc2C1=Cc1cc2c([nH]1)CCCC2` [10721/B05], 45.9%. In the case of `Cc1cc(C)c(C=C2C(=O)Nc3ccc(I)cc32)[nH]1` [10721/B08], the “Fik Kinase %Inhibition” value was 18.5%.

On to `CC(C)(C)c1cc(C=C2C(=O)Nc3ccc(I)cc32)ccc1O` [10721/B09], for which the “Fik Kinase %Inhibition” value amounted to 9.0%. The figure for `CC(C)(C)c1cc(C=C2C(=O)Nc3ccc(I)cc32)cc(Br)c1O` [10721/B10] is 20.9%; for `CC(C)(C)c1cc(C=C2C(=O)Nc3ccc(I)cc32)cc(C(C)(C)C)c1O` [10721/B11] it is -2.1%; for `Cc1c(Br)ccc2c1C(=Cc1nc3ccccc3n1C)C(=O)N2` [10721/C02] it is 9.7%. The figure for `Cc1c(Br)ccc2c1C(=Cc1nn(C)cc1Cl)C(=O)N2` [10721/C03] is 16.5%.

With `Cc1cc(C=C2C(=O)Nc3ccc(Br)c(C)c32)sc1C` [10721/C04], the “Fik Kinase %Inhibition” value amounted to 21.8%. The result for `Cc1c(Br)ccc2c1C(=Cc1cc3c([nH]1)CCCC3)C(=O)N2` [10721/C05] reads 56.4%. The figure for `Cc1c(Br)ccc2c1C(=Cc1cc([N+](=O)[O-])cc(CCl)c1O)C(=O)N2` [10721/C06] is 14.4%; for `Cc1c(Br)ccc2c1C(=Cc1ccc(Cl)s1)C(=O)N2` [10721/C07] it is 10.9%. The figure for `Cc1cc(C)c(C=C2C(=O)Nc3ccc(Br)c(C)c32)[nH]1` [10721/C08] is 55.8%; for `Cc1c(Br)ccc2c1C(=Cc1ccc(O)c(C(C)(C)C)c1)C(=O)N2` [10721/C09] it is 17.5%. Turning to `Cc1c(Br)ccc2c1C(=Cc1cc(Br)c(O)c(C(C)(C)C)c1)C(=O)N2` [10721/C10], the “Fik Kinase %Inhibition” value amounted to 21.1%. The result for `Cc1c(Br)ccc2c1C(=Cc1cc(C(C)(C)C)c(O)c(C(C)(C)C)c1)C(=O)N2` [10721/C11] reads 13.9%; that for `CNS(=O)(=O)c1ccc2c(c1)C(=Cc1nc3ccccc3n1C)C(=O)N2` [10721/D02], 15.1%.

The record behind these values is patent publication EP1247803A2, “Indolinone compounds suitable for modulation of protein kinases” (Sugen, Inc., priority 1996, dated 1998).
